Measured values as given in ChEMBL document CHEMBL4334449, “Jorunnamycin A from Xestospongia sp. Suppresses Epithelial to Mesenchymal Transition and Sensitizes Anoikis in Human Lung Cancer Cells” (J Nat Prod, 2019).
Calls of active or inactive are those of the source. The calls are words filed in the database; no cut-off is given here.

Columns and labels:
NCI-H23 [1] = assay: Induction of anoikis in human H23 cells harboring with p53 mutant under detachment conditions assessed as effect on P53 level at 0.05 to 0.5 uM after 12 hrs by Western blot analysis; type: functional, cell-based
Homo sapiens = species: Homo sapiens; assay: Inhibition of ERK phosphorylation in human H460 cells under detachment conditions at 0.05 to 0.5 uM after 12 hrs by Western blot analysis; type: cell-based
NCI-H460 [2] = assay: Inhibition of colony formation in human H460 cells under detachment conditions assessed as reduction in size of colonies at 0.1 to 0.5 uM after 14 days by microscopic method; type: functional, cell-based
NCI-H23 [3] = assay: Inhibition of colony formation in human H23 cells under detachment conditions assessed as reduction in size of colonies at 0.1 to 0.5 uM after 14 days by microscopic method; type: functional, cell-based
NCI-H292 [4] = assay: Inhibition of colony formation in human NCI-H292 cells under detachment conditions assessed as reduction in number of colonies at 0.1 to 0.5 uM after 14 days by microscopic method; type: functional, cell-based
NCI-H460 [5] = assay: Induction of apoptosis in human H460 cells under detachment conditions at 0.05 to 0.5 uM after 24 hrs by Hoechst 33342/propidium iodide staining based fluorescent microscopic method; type: functional, cell-based
NCI-H460 [6] = assay: Inhibition of colony formation in human H460 cells under detachment conditions assessed as reduction in number of colonies at 0.1 to 0.5 uM after 14 days by microscopic method; type: functional, cell-based
NCI-H23 [7] = assay: Induction of apoptosis in human H23 cells under detachment conditions assessed as late apoptotic cells at 0.5 uM after 24 hrs by Annexin V-FITC/propidium iodide staining-based flow cytometric analysis (reference value: 2.82%); type: functional
NCI-H23 [8] = assay: Induction of anoikis in human H23 cells harboring with p53 mutant under detachment conditions assessed as effect on Bax level at 0.05 to 0.5 uM after 12 hrs by Western blot analysis; type: functional, cell-based
NCI-H23 [9] = assay: Inhibition of epithelial-mesenchymal transition in human H23 cells harboring with p53 mutant under detachment conditions assessed as increase in claudin-1 protein level 0.05 to 0.5 uM after 12 hrs by Western blot analysis; type: functional, cell-based
NCI-H23 [10] = assay: Inhibition of colony formation in human H23 cells under detachment conditions assessed as reduction in number of colonies at 0.1 to 0.5 uM after 14 days by microscopic method; type: functional, cell-based
NCI-H23 [11] = assay: Inhibition of epithelial-mesenchymal transition in human H23 cells harboring with p53 mutant under detachment conditions assessed as decrease in snail protein level 0.05 to 0.5 uM after 12 hrs by Western blot analysis; type: functional, cell-based
NCI-H292 [12] = assay: Induction of apoptosis in human NCI-H292 cells under detachment conditions assessed as viable cells at 0.5 uM after 24 hrs by Annexin V-FITC/propidium iodide staining-based flow cytometric analysis (reference value: 40.55%); type: functional; details: NCI-H292, 24 h, read-out: Activity
NCI-H460 [13] = assay: Induction of anoikis in human H460 cells under detachment conditions assessed as decrease in MCL-1 level at 0.05 to 0.5 uM after 12 hrs by Western blot analysis; type: functional, cell-based
NCI-H460 [14] = assay: Antiproliferative activity against human H460 cells under detachment conditions assessed as reduction in cell viability at 0.1 to 0.5 uM after 3 hrs by XTT assay; type: functional, cell-based
NCI-H460 [15] = assay: Induction of apoptosis in human H460 cells assessed as accumulation of necrotic cells at 0.05 to 1 uM after 24 hrs by Hoechst 33342/propidium iodide staining based fluorescent microscopic method; type: functional, cell-based
NCI-H292 [16] = assay: Inhibition of colony formation in human NCI-H292 cells under detachment conditions assessed as reduction in size of colonies at 0.1 to 0.5 uM after 14 days by microscopic method; type: functional, cell-based
NCI-H23 [17] = assay: Induction of apoptosis in human H23 cells under detachment conditions assessed as early apoptotic cells at 0.5 uM after 24 hrs by Annexin V-FITC/propidium iodide staining-based flow cytometric analysis (reference value: 26.81%); type: functional
NCI-H23 [18] = assay: Antiproliferative activity against human H23 cells under detachment conditions assessed as reduction in cell viability at 0.05 to 0.5 uM up to 24 hrs by XTT assay; type: functional, cell-based
NCI-H460 [19] = assay: Induction of anoikis in human H460 cells […] under detachment conditions assessed as effect on P53 level at 0.05 to 0.5 uM after 12 hrs by Western blot analysis; type: functional, cell-based
NCI-H23 [20] = assay: Induction of apoptosis in human H23 cells under detachment conditions assessed as viable cells at 0.5 uM after 24 hrs by Annexin V-FITC/propidium iodide staining-based flow cytometric analysis (reference value: 69.96%); type: functional; details: NCI-H23, 24 h, read-out: Activity
NCI-H460 [21] = assay: Induction of anoikis in human H460 cells under detachment conditions assessed as increase in Bax level at 0.05 to 0.5 uM after 12 hrs by Western blot analysis; type: functional, cell-based
NCI-H460 [22] = assay: Induction of anoikis in human H460 cells under detachment conditions at 0.05 to 0.5 uM after 24 hrs by Hoechst 33342/propidium iodide staining based fluorescent microscopic method; type: functional, cell-based
NCI-H460 [23] = assay: Inhibition of epithelial-mesenchymal transition in human H460 cells under detachment conditions assessed as increase in claudin-1 protein level 0.05 to 0.5 uM after 12 hrs by Western blot analysis; type: functional, cell-based
NCI-H23 [24] = assay: Induction of anoikis in human H23 cells harboring with p53 mutant under detachment conditions assessed as decrease in BCL-2 level at 0.05 to 0.5 uM after 12 hrs by Western blot analysis; type: functional, cell-based
NCI-H460 [25] = assay: Inhibition of epithelial-mesenchymal transition in human H460 cells under detachment conditions assessed as decrease in vimentin protein level 0.05 to 0.5 uM after 12 hrs by Western blot analysis; type: functional, cell-based
NCI-H460 [26] = assay: Antiproliferative activity against human H460 cells assessed as reduction in cell viability at 0.1 to 0.5 uM after at 72 hrs by crystal violet staining assay; type: functional, cell-based
NCI-H460 [27] = assay: Induction of apoptosis in human H460 cells at 0.05 to 0.5 uM after 24 hrs by Hoechst 33342/propidium iodide staining based fluorescent microscopic method; type: functional, cell-based
NCI-H23 [28] = assay: Down regulation of caveolin-1 human H23 cells harboring with p53 mutant under detachment conditions at 0.05 to 0.5 uM after 12 hrs by Western blot analysis; type: functional, cell-based
NCI-H292 [29] = assay: Induction of apoptosis in human NCI-H292 cells under detachment conditions assessed as necrotic cells at 0.5 uM after 24 hrs by Annexin V-FITC/propidium iodide staining-based flow cytometric analysis (reference value: 1.28%); type: functional

In the case of `COC1=C(C)C(=O)C2=C(C1=O)[C@@H]1[C@@H]3CC4=C(C(=O)C(OC)=C(C)C4=O)[C@H](CO)N3[C@@H](C#N)[C@H](C2)N1C` [JOURNNAMYCIN A], the Activity (NCI-H23 [1]) is reported as “inactive”, the inhibition (Homo sapiens) is reported as “Active” and the inhibition (NCI-H460 [2]) is reported as “Active”. The inhibition (NCI-H23 [3]) was “Active”, the inhibition (NCI-H292 [4]) was “Active” and the Activity (NCI-H460 [5]) was “Active”. For the same compound, the inhibition (NCI-H460 [6]) was “Active”, the Activity (NCI-H23 [7]) was 17.1% and the Activity (NCI-H23 [8]) was “inactive”. The inhibition (NCI-H23 [9]) was “Active”, the inhibition (NCI-H23 [10]) was “Active” and the inhibition (NCI-H23 [11]) was “Active”. For the same compound, the viability at 0.5 µM (NCI-H292 [12]) was 25.8%, the Activity (NCI-H460 [13]) was “Active” and the Activity (NCI-H460 [14]) was “Active”. The Activity (NCI-H460 [15]) was “inactive”, the inhibition (NCI-H292 [16]) was “Active” and the Activity (NCI-H23 [17]) was 37.79%. For the same compound, the Activity (NCI-H23 [18]) was “Active”, the Activity (NCI-H460 [19]) was “inactive” and the viability at 0.5 µM (NCI-H23 [20]) was 44.6%. The Activity (NCI-H460 [21]) was “Active”, the Activity (NCI-H460 [22]) was “Active” and the inhibition (NCI-H460 [23]) was “Active”. The Activity (NCI-H23 [24]) was “Active”, the inhibition (NCI-H460 [25]) was “Active” and the Activity (NCI-H460 [26]) was “Active”. The Activity (NCI-H460 [27]) was “inactive”, the Activity (NCI-H23 [28]) was “Active” and the Activity (NCI-H292 [29]) was 0.4%.
